Values quoted from earlier work in patent US7267830B2, “Composition and methods for inhibiting the progression macular degeneration and promoting healthy vision” (Alcon, Inc., priority 2003, dated 2007).
Where two headings read alike, the source gives them in different places.

Tests used:
[1] = tested on: macular degeneration changes; conditions: zinc supplement, Newsome 1988

Compound: [Zn] [Zinc]
- tolerability (100 mg zinc a day (Wagner 1985)): well tolerated without difficulty
- tolerability (150 mg of zinc a day (Wagner 1985)): well tolerated without difficulty
- tolerability (about 200 mg of zinc per day): well-tolerated
- potential side effects (about 200 mg of zinc per day (Fischer 1983)): blocking copper absorption
- retarding macular degeneration changes versus placebo [1]: significantly better than placebo
